Key:
[1] = tested on: blood brain barrier (rat brain); experiment: DCE-MRI contrast agent accumulation in rat brain; format: in vivo, rats
Description: Yet another set of in vivo experiments was performed using Dynamic Contrast Enhanced MRI (DCE-MRI) with intravenous injection of Gadolinium contrast agent (Gd-DTPA, Magnetol, MW 547). In these experiments, test rats were treated with 100 kHz alternating electric fields for 72 h, and control rats were not treated with alternating electric fields for the same period of time. After this 72 h period, the alternating electric field was turned off, the rats were anesthetized, and a series of 60 T1w MRI scans (each of the scans having a duration of 28 seconds) was acquired. The gadolinium contrast agent was injected into the rat's tail vein during the 7th of these 60 scans.
The image analysis for each rat included (1) determining a baseline for each voxel by calculating the mean of the first six T1w MRI scans for each voxel (i.e., the scans prior to the injection of the gadolinium); (2) computing voxel by voxel, the percent signal change (i.e., gadolinium accumulation) over time relative to the baseline; (3) segmenting the brain into anterior, middle, and posterior segments; (4) generating for each of the three segments the mean percent signal change with respect to the baseline over all the voxels in the respective segment and then (5) averaging 4 consecutive time points (i.e. 4 scans) together. Finally, the data from all of the rats within any given group were averaged together. […]

[2] = tested on: blood brain barrier (rat brain); experiment: Evans Blue accumulation in rat brain after alternating electric fields; format: in vivo, rats
Source text: A set of in vivo experiments on rats was also run to quantify the increase in vessel permeability caused by exposure to the alternating electric fields. These experiments used Evans Blue (EB) dye, which is an azo dye that has a very high affinity for serum albumin (molecule size ˜69 kDa). Because of its large molecule size, serum albumin will ordinarily not be able to get past the BBB.
This was accomplished by shaving each rat's head, positioning a first pair of capacitively coupled electrodes on the top and bottom of the rat's head, and positioning a second pair of capacitively coupled electrodes on the left and right sides of the rat's head. A 100 kHz AC voltage was then applied between the top and bottom electrodes for 1 second, followed by a 100 kHz AC voltage applied between the right and left electrodes for 1 second, in a repeating sequence.
Under the conditions indicated in Table 1 and for the times indicated on Table 1, EB was injected intravenously into the tail vein under anesthesia (Once injected, EB immediately binds to Albumin), and the EB was allowed to circulate for 2 hours in all cases. The following steps were then performed: (a) intracardiac perfusion with saline; (b) brains are sliced in four pieces with a brain slicer; (c) pieces were photographed to localize staining and weighted; (d) EB extraction after tissue homogenization with TCA 50% (1:3) and centrifuge and (e) EB quantification at 610 nm. Results are given as μg EB per g tissue.
During the experiment, two animals from group 2 and one animal from group 4 were excluded (disrupted treatment, failure to inject EB into the tail vein). There were no differences between the animals treated with alternating electric fields (groups 1 and 2) and therefore these animals were grouped together. Similarly, there were no differences between sham heat and control animals (groups 3 and 4) and therefore these animals were grouped together.
EB accumulation in these four specific sections was then measured. In addition, a computer simulation was performed to determine the field strength in each of these four sections. […]

| SMILES | contrast agent accumulation in the brain tissue (DCE-MRI percent signal change) ([1]; 100 kHz fields 72 h (n=6) vs control rats (n=3), most pronounced in posterior brain) | contrast agent accumulation in the brain tissue (DCE-MRI percent signal change) ([1]; 100 kHz fields 72 hours followed by 96 hours without fields (n=7) vs control+96h (n=3)) | average EB accumulation in the rat brain, averaged over all four sections 1-4 ([2]; 100 kHz fields 72 hours vs sham heat/control, p<0.05) | EB accumulation, sections 1, 2 (frontal cerebrum) ([2]; 100 kHz fields 72 h vs sham heat/control, EB i.v., circulated 2 hours, sections where field strength was highest) | EB accumulation, more posterior sections (3, 4) ([2]; 100 kHz fields 72 h vs sham heat/control, EB i.v., circulated 2 hours, sections where field strength was lower) |
| --- | --- | --- | --- | --- | --- |
| O=C([O-])CN(CCN(CC(=O)[O-])CC(=O)O)CCN(CC(=O)[O-])CC(=O)O.[Gd+3] [contrast agent, Gd-DTPA] | significantly higher | not significantly different |  |  |  |
| Cc1cc(-c2ccc(/N=N/c3ccc4c(S(=O)(=O)O)cc(S(=O)(=O)O)c(N)c4c3O)c(C)c2)ccc1/N=N/c1ccc2c(S(=O)(=O)O)cc(S(=O)(=O)O)c(N)c2c1O [EB, Evans Blue] |  |  | higher accumulation | statistically significant increase | smaller increase (that was not statistically significant) |

— patent publication US12290654B2, “Using alternating electric fields to increase permeability of the blood brain barrier” (Novocure GmbH, priority 2018, dated 2025)
